Measured values as given in PubChem BioAssay (NCI).
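GI50 marks 50% less growth. TGI: concentration producing complete growth inhibition.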

Key:
Experiment in all cases: NCI anticancer screen, dose series, 384-well format
RXF 393 renal = test system: RXF 393 renal
786-0 renal = test system: 786-0 renal
NCI-H522 lung = test system: NCI-H522 lung
OVCAR-3 ovarian = test system: OVCAR-3 ovarian
NCI/ADR-RES ovarian = test system: NCI/ADR-RES ovarian
SNB-19 CNS = test system: SNB-19 CNS
OVCAR-4 ovarian = test system: OVCAR-4 ovarian
SK-MEL-28 melanoma = test system: SK-MEL-28 melanoma
KM12 colon = test system: KM12 colon
HOP-92 NSCLC = test system: HOP-92 NSCLC
T-47D breast = test system: T-47D breast
RPMI-8226 leukemia = test system: RPMI-8226 leukemia
HCC-2998 colon = test system: HCC-2998 colon
K-562 leukemia = test system: K-562 leukemia
HCT-15 colon = test system: HCT-15 colon
SW-620 colon = test system: SW-620 colon
HL-60(TB) leukemia = test system: HL-60(TB) leukemia
UACC-62 melanoma = test system: UACC-62 melanoma
M14 melanoma = test system: M14 melanoma
SK-OV-3 ovarian = test system: SK-OV-3 ovarian
UACC-257 melanoma = test system: UACC-257 melanoma
OVCAR-5 ovarian = test system: OVCAR-5 ovarian
TK-10 renal = test system: TK-10 renal
U251 glioblastoma = test system: U251 glioblastoma
PC-3 prostate = test system: PC-3 prostate
NCI-H226 lung = test system: NCI-H226 lung
COLO 205 colon = test system: COLO 205 colon
SF-268 CNS = test system: SF-268 CNS
MDA-MB-231 breast = test system: MDA-MB-231 breast
HCT-116 colon = test system: HCT-116 colon
HOP-62 NSCLC = test system: HOP-62 NSCLC
SK-MEL-5 melanoma = test system: SK-MEL-5 melanoma
DU-145 prostate = test system: DU-145 prostate
LOX IMVI melanoma = test system: LOX IMVI melanoma
ACHN renal = test system: ACHN renal
MCF7 breast = test system: MCF7 breast
MALME-3M melanoma = test system: MALME-3M melanoma
SF-539 CNS = test system: SF-539 CNS
BT-549 breast = test system: BT-549 breast
NCI-H23 lung = test system: NCI-H23 lung
SNB-75 CNS = test system: SNB-75 CNS
IGROV1 ovarian = test system: IGROV1 ovarian
UO-31 renal = test system: UO-31 renal
CCRF-CEM leukemia = test system: CCRF-CEM leukemia
A498 renal = test system: A498 renal
HT29 colon = test system: HT29 colon
A549 NSCLC = test system: A549 NSCLC
HS 578T breast = test system: HS 578T breast
CAKI-1 renal = test system: CAKI-1 renal
NCI-H322M lung = test system: NCI-H322M lung
SF-295 CNS = test system: SF-295 CNS
SN12C renal = test system: SN12C renal
MDA-MB-468 breast = test system: MDA-MB-468 breast
MDA-MB-435 melanoma = test system: MDA-MB-435 melanoma
OVCAR-8 ovarian = test system: OVCAR-8 ovarian
EKVX NSCLC = test system: EKVX NSCLC
NCI-H460 NSCLC = test system: NCI-H460 NSCLC
MOLT-4 leukemia = test system: MOLT-4 leukemia

Structure (SMILES): O=C(Nc1ccc(-c2ccnc(Nc3ccc(N4CCOCC4)cc3)n2)cc1)C1CCCN1 (stereo unspecified)
- GI50 (RXF 393 renal): 1.6 µM
- TGI (RXF 393 renal): 12.1 µM
- GI50 ([…]-0 renal): 2.82 µM
- TGI (786-0 renal): 11.7 µM
- GI50 (NCI-H522 lung): 2.88 µM
- TGI (NCI-H522 lung): 6.72 µM
- GI50 (OVCAR-3 ovarian): 12.8 µM
- TGI (OVCAR-3 ovarian): 26.2 µM
- GI50 (NCI/ADR-RES ovarian): 7.15 µM
- TGI (NCI/ADR-RES ovarian): 21.9 µM
- GI50 (SNB-19 CNS): 11.4 µM
- TGI (SNB-19 CNS): 26.6 µM
- GI50 (OVCAR-4 ovarian): 14.5 µM
- TGI (OVCAR-4 ovarian): 28.7 µM
- GI50 (SK-MEL-28 melanoma): 7.45 µM
- TGI (SK-MEL-28 melanoma): 20.5 µM
- GI50 (KM12 colon): 8 µM
- TGI (KM12 colon): 21.1 µM
- GI50 (HOP-92 NSCLC): 4.9 µM
- TGI (HOP-92 NSCLC): 20.2 µM
- GI50 (T-47D breast): 5.28 µM
- TGI (T-47D breast): 15.8 µM
- GI50 (RPMI-8226 leukemia): 1.29 µM
- TGI (RPMI-8226 leukemia): 10.5 µM
- GI50 (HCC-2998 colon): 2.46 µM
- TGI (HCC-2998 colon): 8.76 µM
- GI50 (K-562 leukemia): 1.39 µM
- TGI (K-562 leukemia): 10.9 µM
- GI50 (HCT-15 colon): 1.25 µM
- TGI (HCT-15 colon): 15 µM
- GI50 (SW-620 colon): 5.25 µM
- TGI (SW-620 colon): 16 µM
- GI50 (HL-60(TB) leukemia): 1.56 µM
- TGI (HL-60(TB) leukemia): 3.22 µM
- GI50 (UACC-62 melanoma): 3.1 µM
- TGI (UACC-62 melanoma): 16.8 µM
- GI50 (M14 melanoma): 5.63 µM
- TGI (M14 melanoma): 18.2 µM
- GI50 (SK-OV-3 ovarian): 3.29 µM
- TGI (SK-OV-3 ovarian): 16.5 µM
- GI50 (UACC-257 melanoma): 2.46 µM
- TGI (UACC-257 melanoma): 5.49 µM
- GI50 (OVCAR-5 ovarian): 12.4 µM
- TGI (OVCAR-5 ovarian): 25.6 µM
- GI50 (TK-10 renal): 2.78 µM
- TGI (TK-10 renal): 19.2 µM
- GI50 (U251 glioblastoma): 3.9 µM
- TGI (U251 glioblastoma): 17 µM
- GI50 (PC-3 prostate): 5.86 µM
- TGI (PC-3 prostate): 19.7 µM
- GI50 (NCI-H226 lung): 1.24 µM
- TGI (NCI-H226 lung): 10.6 µM
- GI50 (COLO 205 colon): 2.68 µM
- TGI (COLO 205 colon): 17.4 µM
- GI50 (SF-268 CNS): 0.204 µM
- TGI (SF-268 CNS): 0.857 µM
- GI50 (MDA-MB-231 breast): 0.87 µM
- TGI (MDA-MB-231 breast): 17.3 µM
- GI50 (HCT-116 colon): 1.5 µM
- TGI (HCT-116 colon): 11.6 µM
- GI50 (HOP-62 NSCLC): 11.4 µM
- TGI (HOP-62 NSCLC): 24.7 µM
- GI50 (SK-MEL-5 melanoma): 0.687 µM
- TGI (SK-MEL-5 melanoma): 14.2 µM
- GI50 (DU-145 prostate): 4.54 µM
- TGI (DU-145 prostate): 15.4 µM
- GI50 (LOX IMVI melanoma): 1.74 µM
- TGI (LOX IMVI melanoma): 7.69 µM
- GI50 (ACHN renal): 4.76 µM
- TGI (ACHN renal): 17.6 µM
- GI50 (MCF7 breast): 4.63 µM
- TGI (MCF7 breast): 17.6 µM
- GI50 (MALME-3M melanoma): 3.88 µM
- TGI (MALME-3M melanoma): 15.4 µM
- GI50 (SF-539 CNS): 3.89 µM
- TGI (SF-539 CNS): 15.2 µM
- GI50 (BT-549 breast): 3.78 µM
- TGI (BT-549 breast): 14.1 µM
- GI50 (NCI-H23 lung): 13.7 µM
- TGI (NCI-H23 lung): 27.1 µM
- GI50 (SNB-75 CNS): 4.17 µM
- TGI (SNB-75 CNS): 15.3 µM
- GI50 (IGROV1 ovarian): 3.52 µM
- TGI (IGROV1 ovarian): 16.7 µM
- GI50 (UO-31 renal): 3.96 µM
- TGI (UO-31 renal): 15.8 µM
- GI50 (CCRF-CEM leukemia): 1.79 µM
- TGI (CCRF-CEM leukemia): 10.1 µM
- GI50 (A498 renal): 6.48 µM
- TGI (A498 renal): 18.9 µM
- GI50 (HT29 colon): 2.22 µM
- TGI (HT29 colon): 10.8 µM
- GI50 (A549 NSCLC): 4.69 µM
- TGI (A549 NSCLC): 17.8 µM
- GI50 (HS 578T breast): 4.67 µM
- TGI (HS 578T breast): 16.7 µM
- GI50 (CAKI-1 renal): 4.41 µM
- TGI (CAKI-1 renal): 15.6 µM
- GI50 (NCI-H322M lung): 10.4 µM
- TGI (NCI-H322M lung): 22.8 µM
- GI50 (SF-295 CNS): 7.63 µM
- TGI (SF-295 CNS): 21.3 µM
- GI50 (SN12C renal): 3.6 µM
- TGI (SN12C renal): 17 µM
- GI50 (MDA-MB-468 breast): 2.02 µM
- TGI (MDA-MB-468 breast): 8.28 µM
- GI50 (MDA-MB-435 melanoma): 7.37 µM
- TGI (MDA-MB-435 melanoma): 19.8 µM
- GI50 (OVCAR-8 ovarian): 5.11 µM
- TGI (OVCAR-8 ovarian): 18.1 µM
- GI50 (EKVX NSCLC): 11.9 µM
- TGI (EKVX NSCLC): 24.9 µM
- GI50 (NCI-H460 NSCLC): 1.65 µM
- TGI (NCI-H460 NSCLC): 10.9 µM
- GI50 (MOLT-4 leukemia): 0.439 µM
- TGI (MOLT-4 leukemia): 1.56 µM
